Laboratory results as given in patent publication US10005768B2, “Carboxamide derivatives and use thereof” (Purdue Pharma L.P., priority 2013, dated 2018).

target: human Nav1.7 (Homo sapiens (Human), UniProt Q15858); experiment: FLIPR sodium dye assay (CoroNa Green AM Na+ dye, primary fluorescence assay); format: cell-based; details: recombinant Nav1.7/HEK293 cells
Experimental: In vitro assays were performed in a recombinant cell line expressing cDNA encoding the alpha subunit (Nav1.7, SCN9a, PN1, NE) of human Nav1.7 (Accession No. NM_002977). The cell line was provided by investigators at Yale University (Cummins et al, J. Neurosci. 18(23): 9607-9619 (1998)). For dominant selection of the Nav1.7-expressing clones, the expression plasmid co-expressed the neomycin resistance gene. The cell line was constructed in the human embryonic kidney cell line, HEK293, under the influence of the CMV […] promoter, and stable clones were selected using limiting dilution cloning and antibiotic selection using the neomycin analogue, G418. Recombinant beta and gamma subunits were not introduced into this cell line. Additional cell lines expressing recombinant Nav1.7 cloned from other species can also be used, alone or in combination with various beta subunits, gamma subunits or chaperones.
Unless otherwise noted, cell culture reagents were purchased from Mediatech of Herndon, Va. The recombinant Nav1.7/HEK293 cells were routinely cultured in growth medium consisting of Dulbecco's […] essential medium containing 10% fetal bovine serum (FBS, Hyclone, Thermo Fisher Scientific, Logan, Utah), 100 U/mL penicillin, 100 μg/mL streptomycin, 2-4 mM L-glutamine, and […] G418. For natural, non-recombinant cell lines, the selective antibiotic was omitted, and additional media formulations can be applied as needed.
The final buffer consisted of 20 mM Hepes, pH 7.3, 1.261 mM CaCl2, 0.493 mM MgCl2, 0.407 mM Mg(SO)4, 5.33 mM KCl, 0.441 mM KH2PO4, 137 mM NaCl, 0.336 mM Na2HPO4 and […] D-glucose (Hanks et al., Proc. Soc. Exp. Biol. Med. 71:196 (1949)), and the simple formulation was typically the basic buffer throughout the assay (i.e., all wash and addition steps).
The fluorescence indicator used in the primary fluorescence assay was the cell permeant version of CoroNa™ Green (Invitrogen, Molecular Probes, Eugene, Oreg.), a dye that emits light in the fluorescence range (Harootunian et al., J. Biol. Chem. 264(32):19458-19467 (1989)). The intensity of this emission, but not the wavelength range, is increased when the dye is exposed to Na^+ ions, which it can bind with partial selectivity. Cells expressing Nav1.7 or other sodium channels were loaded with the CoroNa™ Green dye immediately in advance of the fluorescence assay, and then, after agonist stimulation, the mobilization of Na^+ ions was detected as the Na^+ ions flowed from the extracellular fluid into the cytoplasm through the activated sodium channel pores. The dye was stored in the dark as a lyophilized powder, and then an aliquot was dissolved immediately before the cell loading procedure, according to the instructions of the manufacturer, to a stock concentration of 10 mM in DMSO. It was then diluted in the assay buffer to a 4× concentrated working solution, so that the final concentration of dye in the cell loading buffer was 5 μM.
In the fluorescence assays, two agonists were used in combination, namely 1) veratridine; and 2) the venom from the yellow scorpion, Leiurus quinquestriatus hebraeus. Veratridine is an alkaloid small molecule that facilitates the capture of channel openings by inhibiting inactivation, and the scorpion venom is a natural preparation that includes peptide toxins selective for different subsets of voltage-gated sodium channels. These scorpion toxins inhibit the fast inactivation of their cognate target channels. Stock solutions of the agonists were prepared to 40 mM in DMSO (veratridine) and 1 mg/mL in dH2O (scorpion venom), and then diluted to make a 4× or 2× stock (depending on the particular assay) in assay buffer, the final concentration being 100 μM (veratridine) and 10 μg/mL (scorpion venom). Both of the agonists were purchased from Sigma Aldrich, St. Louis, Mo.
Test compounds were dissolved in DMSO to yield 10 mM stock solutions. […]

Chain of human Nav1.7 (Q15858 other isoform, or with tags, fused parts or gaps): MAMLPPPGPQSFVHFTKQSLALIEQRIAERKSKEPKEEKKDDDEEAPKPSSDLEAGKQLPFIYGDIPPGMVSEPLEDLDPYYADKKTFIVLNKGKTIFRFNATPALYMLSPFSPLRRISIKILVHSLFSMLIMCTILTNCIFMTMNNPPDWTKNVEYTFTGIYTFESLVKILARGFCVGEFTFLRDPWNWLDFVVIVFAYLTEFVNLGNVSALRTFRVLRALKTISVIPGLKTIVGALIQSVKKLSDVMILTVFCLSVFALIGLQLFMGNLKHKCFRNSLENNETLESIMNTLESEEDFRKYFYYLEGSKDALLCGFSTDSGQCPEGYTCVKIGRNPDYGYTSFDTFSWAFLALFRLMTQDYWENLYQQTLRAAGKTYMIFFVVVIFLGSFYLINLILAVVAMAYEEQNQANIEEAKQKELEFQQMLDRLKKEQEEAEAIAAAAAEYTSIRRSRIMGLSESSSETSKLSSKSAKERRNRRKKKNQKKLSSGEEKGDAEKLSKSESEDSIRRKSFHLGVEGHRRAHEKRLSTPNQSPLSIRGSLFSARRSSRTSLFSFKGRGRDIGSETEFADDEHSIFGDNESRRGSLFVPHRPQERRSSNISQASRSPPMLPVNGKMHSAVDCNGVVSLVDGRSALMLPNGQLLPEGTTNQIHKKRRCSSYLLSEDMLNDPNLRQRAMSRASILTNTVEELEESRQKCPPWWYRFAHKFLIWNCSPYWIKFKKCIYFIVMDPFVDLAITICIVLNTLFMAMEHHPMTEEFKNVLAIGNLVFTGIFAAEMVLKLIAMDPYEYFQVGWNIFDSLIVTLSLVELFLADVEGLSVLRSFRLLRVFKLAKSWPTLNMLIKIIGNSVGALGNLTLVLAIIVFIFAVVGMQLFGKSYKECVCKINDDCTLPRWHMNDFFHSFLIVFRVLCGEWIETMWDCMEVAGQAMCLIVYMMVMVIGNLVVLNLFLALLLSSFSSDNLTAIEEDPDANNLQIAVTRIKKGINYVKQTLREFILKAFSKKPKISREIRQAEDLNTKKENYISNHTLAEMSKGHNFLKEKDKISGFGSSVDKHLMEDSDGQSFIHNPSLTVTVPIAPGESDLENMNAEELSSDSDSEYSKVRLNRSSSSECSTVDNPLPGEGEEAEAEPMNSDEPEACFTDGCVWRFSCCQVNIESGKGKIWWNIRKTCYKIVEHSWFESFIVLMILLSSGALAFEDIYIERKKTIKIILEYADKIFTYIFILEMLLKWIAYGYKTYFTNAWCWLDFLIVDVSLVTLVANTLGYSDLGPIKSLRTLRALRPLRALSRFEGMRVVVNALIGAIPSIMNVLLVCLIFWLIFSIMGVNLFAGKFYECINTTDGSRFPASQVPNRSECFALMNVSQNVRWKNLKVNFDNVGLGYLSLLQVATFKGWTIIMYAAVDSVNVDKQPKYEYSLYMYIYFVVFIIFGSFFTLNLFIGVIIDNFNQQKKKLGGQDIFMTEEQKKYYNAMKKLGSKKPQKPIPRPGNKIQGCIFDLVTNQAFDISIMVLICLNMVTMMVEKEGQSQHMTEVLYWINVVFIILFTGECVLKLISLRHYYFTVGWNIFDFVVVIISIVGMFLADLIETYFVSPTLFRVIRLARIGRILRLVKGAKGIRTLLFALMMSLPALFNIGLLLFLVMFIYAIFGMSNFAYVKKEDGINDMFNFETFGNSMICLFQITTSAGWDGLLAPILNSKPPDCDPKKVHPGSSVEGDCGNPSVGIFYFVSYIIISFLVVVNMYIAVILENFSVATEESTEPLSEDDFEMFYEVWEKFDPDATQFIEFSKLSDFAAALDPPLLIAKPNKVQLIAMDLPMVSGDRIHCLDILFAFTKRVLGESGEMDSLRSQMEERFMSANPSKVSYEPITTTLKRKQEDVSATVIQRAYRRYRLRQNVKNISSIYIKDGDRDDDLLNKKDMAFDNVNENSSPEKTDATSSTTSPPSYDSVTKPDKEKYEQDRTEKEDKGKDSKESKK

First: OC[C@@H](O)c1cccc(-c2ccc(Oc3ccc(C(F)(F)F)cc3CN3CCCCC3)cc2)n1 [compound 107, (S)-1-(6-(4-(2-(piperidin-1-ylmethyl)-4-(trifluoromethyl)phenoxy)phenyl)pyridin-2-yl)ethane-1,2-diol]
Second: OC[C@@H](O)c1cccc(-c2ccc(Oc3ccc(C(F)(F)F)cc3CN3CC[C@H](O)C3)cc2)n1 [compound 75, (S)-1-(6-(4-(2-(((S)-3-hydroxypyrrolidin-1-yl)methyl)-4-(trifluoromethyl)phenoxy)-phenyl)pyridin-2-yl)ethane-1,2-diol]
The IC50 of the first is 5.6-fold lower: 0.174 ± 0.041 µM for the first, 0.972 ± 0.114 µM for the second.

Going from `NC(=O)c1cccc(-c2ccc(Oc3ccc(C(F)(F)F)cc3CN3CCOCC3)cc2)n1` [compound 43, 6-(4-(2-(morpholinomethyl)-4-(trifluoromethyl)phenoxy)phenyl) picolinamide] to `NC(=O)c1cccc(-c2ccc(Oc3ccc(C(F)(F)F)cc3CN3CCCC3)cc2)n1` [compound 30, 6-(4-(2-(pyrrolidin-1-ylmethyl)-4-(trifluoromethyl)phenoxy)phenyl) picolinamide], the IC50 falls from 0.223 ± 0.018 µM to 0.049 ± 0.003 µM (4.6-fold).

Going from `NC(=O)c1cccc(-c2ccc(Oc3ccc(C(F)(F)F)cc3/C=C3\SC(=O)NC3=O)cc2)n1` [compound 155, (Z)-6-(4-(2-((2,4-dioxothiazolidin-5-ylidene)methyl)-4-(trifluoromethyl)phenoxy)phenyl) picolinamide] to `NC(=O)c1cccc(-c2ccc(Oc3ccc(C(F)(F)F)cc3C(=O)O)cc2)n1` [compound 159, 2-(4-(6-carbamoylpyridin-2-yl)phenoxy)-5-(trifluoro-methyl)benzoic acid], the IC50 falls from greater than 20 µM to 1.26 ± 0.135 µM.

`NC(=O)c1cccc(-c2ccc(Oc3ccc(C(F)(F)F)cc3CN[C@H]3CCNC3=O)cc2)n1` [compound 46, (S)-6-(4-(2-(((2-oxopyrrolidin-3-yl)amino)methyl)-4-(trifluoro-methyl)phenoxy)phenyl)picolin-amide] and `NC(=O)c1cccc(-c2ccc(Oc3ccc(C(F)(F)F)cc3CNC3CCNC3)cc2)n1` (stereo not drawn) [compound 61, 6-(4-(2-((pyrrolidin-3-ylamino)methyl)-4-(trifluoromethyl)phenoxy)phenyl) picolinamide] are within error of each other in IC50: 2.58 ± 0.692 µM for the first, 2.04 ± 0.06 µM for the second.

`CC(C)(C)OC(=O)N1CCC(NCc2cc(C(F)(F)F)ccc2Oc2ccc(-c3cccc(C(N)=O)n3)cc2)C1` (stereo not drawn) [compound 48, tert-butyl 3-((2-(4-(6-carbamoylpyridin-2-yl)phenoxy)-5-(trifluoromethyl)benzyl)-amino)pyrrolidine-1-carboxylate] and `CC(C)(C)OC(=O)NC1CCN(Cc2cc(C(F)(F)F)ccc2Oc2ccc(-c3cccc(C(N)=O)n3)cc2)C1` (stereo not drawn) [compound 47, tert-butyl (1-(2-(4-(6-carbamoylpyridin-2-yl)phenoxy)-5-(trifluoromethyl)-benzyl)pyrrolidin-3-yl)carbamate] are within error of each other in IC50: 0.913 ± 0.016 µM for the first, 0.949 ± 0.168 µM for the second.

Compared with `COCc1cc(-c2cccc(C(N)=O)n2)ccc1Oc1ccc(F)cc1` [compound 103, 6-(4-(4-fluorophenoxy)-3-(methoxymethyl)phenyl)picolin-amide], `NC(=O)c1cccc(-c2ccc(Oc3ccc(F)cc3)c(CN3CCCC3)c2)n1` [compound 97, 6-(4-(4-fluorophenoxy)-3-(pyrrolidin-1-ylmethyl)phenyl)-picolinamide] is 14-fold higher in IC50: 0.312 ± 0.008 µM for the first, 4.24 ± 0.919 µM for the second.

Going from `NC(=O)c1cccc(-c2ccc(Oc3ccc(C(F)(F)F)c(CN4CCNC(=O)C4)c3)cc2)n1` [compound 106, 6-(4-(3-((3-oxopiperazin-1-yl)methyl)-4-(trifluoromethyl)-phenoxy)phenyl)picolinamide] to `NC(=O)c1cccc(-c2ccc(Oc3ccc(C(F)(F)F)cc3CN3CCCCC3)cc2)n1` [compound 49, 6-(4-(2-(piperidin-1-ylmethyl)-4-(trifluoromethyl)phenoxy)phenyl) picolinamide], the IC50 falls from 0.455 ± 0.059 µM to 0.096 ± 0.01 µM (4.7-fold).

First: NC(=O)c1cccc(-c2ccc(Oc3ccc(C(F)(F)F)cc3C(=O)C(=O)N3CCCC3)cc2)n1 [compound 157, 6-(4-(2-(2-oxo-2-(pyrrolidin-1-yl)acetyl)-4-(trifluoromethyl)-phenoxy)phenyl)picolinamide]
Second: CN(CCO)C(=O)c1cc(C(F)(F)F)ccc1Oc1ccc(-c2cccc(C(N)=O)n2)cc1 [compound 161, 6-(4-(2-((2-hydroxyethyl)-(methyl)carbamoyl)-4-(trifluoromethyl)phenoxy)phenyl) picolinamide]
The IC50 of the first is lower: 2.71 ± 0.235 µM for the first, greater than 20 µM for the second. The first is the more potent here.

Compared with `NC(=O)c1cccc(-c2ccc(Oc3ccc(F)cc3)cc2F)n1` [compound 99, 6-(2-fluoro-4-(4-fluorophenoxy)-phenyl)picolinamide], `NC(=O)c1cccc(-c2ccc(Oc3ccc(F)cc3)c(-c3nn[nH]n3)c2)n1` [compound 101, 6-(4-(4-fluorophenoxy)-3-(2H-tetrazol-5-yl)phenyl)picolinamide] is 3.3-fold higher in IC50: 0.55 ± 0.057 µM for the first, 1.83 ± 0.383 µM for the second.

Compared with `Cn1cc(-c2cc(C#N)ccc2Oc2ccc(-c3cccc(C(N)=O)n3)cc2)cn1` [compound 21, 6-(4-(4-cyano-2-(1-methyl-1H-pyrazol-4-yl)phenoxy)phenyl)-picolinamide], `N#Cc1ccc(Oc2ccc(-c3cccc(C(N)=O)n3)cc2)c(-c2ccc(O)nc2)c1` [compound 23, 6-(4-(4-cyano-2-(6-hydroxypyridin-3-yl)phenoxy)phenyl)picolinamide] is higher in IC50: 0.564 ± 0.035 µM for the first, greater than 20 µM for the second.

Compared with `NC(=O)c1cccc(-c2ccc(Oc3ccc(C(F)(F)F)cc3CN3CC[C@H](O)C3)cc2)n1` [compound 36, (S)-6-(4-(2-((3-hydroxypyrrolidin-1-yl)methyl)-4-(trifluoromethyl)-phenoxy)phenyl)picolinamide], `NC(=O)c1cccc(-c2ccc(Oc3ccc(C(F)(F)F)cc3CN3CCC(F)(F)C3)cc2)n1` [compound 45, 6-(4-(2-((3,3-difluoropyrrolidin-1-yl)methyl)-4-(trifluoromethyl)phenoxy)phenyl) picolinamide] is 3.8-fold lower in IC50: 0.432 ± 0.131 µM for the first, 0.113 ± 0.034 µM for the second. The second is the more potent here.

Going from `N#Cc1ccc(Oc2ccc(-c3cccc(C(N)=O)n3)cc2)cc1-c1cccnc1` [compound 27, 6-(4-(4-cyano-3-(pyridin-3-yl)phenoxy)phenyl)picolinamide] to `COc1ncccc1-c1cc(C#N)ccc1Oc1ccc(-c2cccc(C(N)=O)n2)cc1` [compound 24, 6-(4-(4-cyano-2-(2-methoxypyridin-3-yl)phenoxy)phenyl)picolinamide], the IC50 falls from 0.549 ± 0.085 µM to 0.152 ± 0.031 µM (3.6-fold). The second is the more potent here.

First: NC(=O)c1cccc(-c2ccc(Oc3cccc(CN4CCCC4)n3)cc2)n1 [compound 59, 6-(4-((6-(pyrrolidin-1-ylmethyl)pyridin-2-yl)oxy)phenyl)picolinamide]
Second: CN(C)C(C(N)=O)c1cc(C(F)(F)F)ccc1Oc1ccc(-c2cccc(C(N)=O)n2)cc1 (stereo not drawn) [compound 84, 6-(4-(2-(2-amino-1-(dimethylamino)-2-oxoethyl)-4-(trifluoromethyl)phenoxy)phenyl) picolinamide]
The IC50 of the first is higher: greater than 20 µM for the first, 10 to 20 µM for the second. The second is the more potent here.

Compared with `N#Cc1ccc(Oc2ccc(-c3cccc(C(N)=O)n3)cc2)c(-c2ccc(N)cc2)c1` [compound 18, 6-(4-((4′-amino-5-cyano-[1,1′-biphenyl]-2-yl)oxy)phenyl)-picolinamide], `CN(C)CCNCc1cc(C(F)(F)F)ccc1Oc1ccc(-c2cccc(C(N)=O)n2)cc1` [compound 31, 6-(4-(2-(((2-(dimethylamino)ethyl)amino)methyl)-4-(trifluoromethyl)phenoxy)phenyl) picolinamide] is 5-fold higher in IC50: 0.426 ± 0.084 µM for the first, 2.14 ± 0.432 µM for the second.

Compared with `COC(=O)c1cccc(-c2ccc(Oc3ccc(C(F)(F)F)cc3C(O)C#N)cc2)n1` (stereo not drawn) [compound 144, methyl 6-(4-(2-(cyano(hydroxy)methyl)-4-(trifluoromethyl)phenoxy)phenyl) picolinate], `CCN(CC)S(=O)(=O)c1cc(C(F)(F)F)ccc1Oc1ccc(-c2cccc([C@H](O)CO)n2)cc1` [compound 113, (S)-2-(4-(6-(1,2-dihydroxyethyl)pyridin-2-yl)phenoxy)-N,N-diethyl-5-(trifluoromethyl)benzenesulfonamide] is 15-fold lower in IC50: 3.79 ± 0.377 µM for the first, 0.249 ± 0.016 µM for the second.
